Results from article PMC12056086 (Nature Communications, 2025).

Assays:
[1] = molecular target: human dopamine transporter (hDAT) (Homo sapiens, UniProt Q01959, K92A)
[2] = molecular target: human dopamine transporter (hDAT) (Homo sapiens, UniProt Q01959, K384A)
[3] = molecular target: human dopamine transporter (hDAT) (Homo sapiens, UniProt Q01959); assay: cell-based; details: read-out: single-molecule AFM force spectroscopy on live cells
[4] = molecular target: human dopamine transporter (hDAT) (Homo sapiens, UniProt Q01959, V152I)
Chain of human dopamine transporter (hDAT) (Homo sapiens, UniProt Q01959, V152I) (Q01959 whole entry V152I): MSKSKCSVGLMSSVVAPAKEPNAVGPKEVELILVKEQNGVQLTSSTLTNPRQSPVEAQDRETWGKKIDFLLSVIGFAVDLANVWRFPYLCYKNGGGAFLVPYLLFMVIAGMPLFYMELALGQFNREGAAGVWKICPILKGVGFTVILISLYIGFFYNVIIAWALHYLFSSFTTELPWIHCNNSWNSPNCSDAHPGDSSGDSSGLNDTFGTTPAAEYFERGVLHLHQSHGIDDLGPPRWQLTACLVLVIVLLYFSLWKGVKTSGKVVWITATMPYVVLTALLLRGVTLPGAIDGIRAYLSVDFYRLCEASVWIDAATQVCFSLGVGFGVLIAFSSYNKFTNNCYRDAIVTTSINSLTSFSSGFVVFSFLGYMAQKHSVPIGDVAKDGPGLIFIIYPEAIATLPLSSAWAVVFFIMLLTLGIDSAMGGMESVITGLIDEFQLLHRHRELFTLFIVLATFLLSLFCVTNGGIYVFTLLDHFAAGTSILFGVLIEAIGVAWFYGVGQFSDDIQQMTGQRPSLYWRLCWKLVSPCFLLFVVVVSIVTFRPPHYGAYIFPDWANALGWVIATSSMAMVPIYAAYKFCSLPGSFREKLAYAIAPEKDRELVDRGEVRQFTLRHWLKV

[5] = molecular target: human dopamine transporter (hDAT) (Homo sapiens, UniProt Q01959, G386H)
Chain of human dopamine transporter (hDAT) (Homo sapiens, UniProt Q01959, G386H) (Q01959 whole entry G386H): as the sequence (Q01959 whole entry V152I) above, with I152V, G386H counted along it

Chain of human dopamine transporter (hDAT) (Homo sapiens, UniProt Q01959) (Q01959 whole entry): as the sequence (Q01959 whole entry V152I) above, with I152V counted along it
Chain of human dopamine transporter (hDAT) (Homo sapiens, UniProt Q01959, K92A) (Q01959 whole entry K92A): as the sequence (Q01959 whole entry V152I) above, with K92A, I152V counted along it
Chain of human dopamine transporter (hDAT) (Homo sapiens, UniProt Q01959, K384A) (Q01959 whole entry K384A): as the sequence (Q01959 whole entry V152I) above, with I152V, K384A counted along it

Question: For `NCCc1ccc(O)c(O)c1` [dopamine], which “single-molecule AFM force spectroscopy on live cells” value [1] is on record?
Answer: Its value is “both K92A and K384A diminished the population of weaker unbinding events, indicating that both lysines are involved in the S2 site”.

Question: And the “single-molecule AFM force spectroscopy on live cells” value [2]?
Answer: Its value is “both K92A and K384A diminished the population of weaker unbinding events, indicating that both lysines are involved in the S2 site”.

Question: What about the koff [3] of the same molecule?
Answer: The koff was 0.11 ± 0.03 s⁻¹.

Question: What about the “single-molecule AFM force spectroscopy on live cells” value [4] of the same molecule?
Answer: Its value is “(V152I) also reduced the population of stronger binding events (d) while the overall binding activity is preserved”.

Question: What about the “single-molecule AFM force spectroscopy on live cells” value [5] of the same molecule?
Answer: Its value is “dopamine was still able to bind to the S2 site of DAT-G386H, albeit with lower binding strength”.
